Test: xn = mol fraction of the nth substance listed, in the solute-free solvent

For `CCOC(=O)C1=CC2(CC)CCCN3CCc4c(n1c1ccccc41)C32` (configuration not stated) + CCO + O, the “solubility (g/100 g solution)” value (283.15 K, x2 = 0.2) was 0.00578, the “solubility (g/100 g solution)” value (283.15 K, x2 = 0.3) was 0.0454 and the “solubility (g/100 g solution)” value (283.15 K, x2 = 0.4) was 0.106. The “solubility (g/100 g solution)” value (283.15 K, x2 = 0.5) was 0.184, the “solubility (g/100 g solution)” value (283.15 K, x2 = 0.6) was 0.257 and the “solubility (g/100 g solution)” value (283.15 K, x2 = 0.7) was 0.335. The “solubility (g/100 g solution)” value (283.15 K, x2 = 0.8) was 0.372, the “solubility (g/100 g solution)” value (283.15 K, x2 = 0.9) was 0.363 and the “solubility (g/100 g solution)” value (288.15 K, x2 = 0.2) was 0.00816. For the same molecule, the “solubility (g/100 g solution)” value (288.15 K, x2 = 0.3) was 0.0591, the “solubility (g/100 g solution)” value (288.15 K, x2 = 0.4) was 0.138 and the “solubility (g/100 g solution)” value (288.15 K, x2 = 0.5) was 0.235. The “solubility (g/100 g solution)” value (288.15 K, x2 = 0.6) was 0.331, the “solubility (g/100 g solution)” value (288.15 K, x2 = 0.7) was 0.418 and the “solubility (g/100 g solution)” value (288.15 K, x2 = 0.8) was 0.479. For the same molecule, the “solubility (g/100 g solution)” value (288.15 K, x2 = 0.9) was 0.466, the “solubility (g/100 g solution)” value (293.15 K, x2 = 0.2) was 0.0113 and the “solubility (g/100 g solution)” value (293.15 K, x2 = 0.3) was 0.0768. The “solubility (g/100 g solution)” value (293.15 K, x2 = 0.4) was 0.178, the “solubility (g/100 g solution)” value (293.15 K, x2 = 0.5) was 0.301 and the “solubility (g/100 g solution)” value (293.15 K, x2 = 0.6) was 0.43. The “solubility (g/100 g solution)” value (293.15 K, x2 = 0.7) was 0.546, the “solubility (g/100 g solution)” value (293.15 K, x2 = 0.8) was 0.612 and the “solubility (g/100 g solution)” value (293.15 K, x2 = 0.9) was 0.609. The “solubility (g/100 g solution)” value (298.15 K, x2 = 0.2) was 0.0153, the “solubility (g/100 g solution)” value (298.15 K, x2 = 0.3) was 0.0954 and the “solubility (g/100 g solution)” value (298.15 K, x2 = 0.4) was 0.211. The “solubility (g/100 g solution)” value (298.15 K, x2 = 0.5) was 0.37, the “solubility (g/100 g solution)” value (298.15 K, x2 = 0.6) was 0.52 and the “solubility (g/100 g solution)” value (298.15 K, x2 = 0.7) was 0.661. For the same molecule, the “solubility (g/100 g solution)” value (298.15 K, x2 = 0.8) was 0.757, the “solubility (g/100 g solution)” value (298.15 K, x2 = 0.9) was 0.766 and the “solubility (g/100 g solution)” value (303.15 K, x2 = 0.2) was 0.0208. The “solubility (g/100 g solution)” value (303.15 K, x2 = 0.3) was 0.12, the “solubility (g/100 g solution)” value (303.15 K, x2 = 0.4) was 0.277 and the “solubility (g/100 g solution)” value (303.15 K, x2 = 0.5) was 0.468. The “solubility (g/100 g solution)” value (303.15 K, x2 = 0.6) was 0.639, the “solubility (g/100 g solution)” value (303.15 K, x2 = 0.7) was 0.831 and the “solubility (g/100 g solution)” value (303.15 K, x2 = 0.8) was 0.941. The “solubility (g/100 g solution)” value (303.15 K, x2 = 0.9) was 0.951, the “solubility (g/100 g solution)” value (308.15 K, x2 = 0.2) was 0.028 and the “solubility (g/100 g solution)” value (308.15 K, x2 = 0.3) was 0.153. The “solubility (g/100 g solution)” value (308.15 K, x2 = 0.4) was 0.346, the “solubility (g/100 g solution)” value (308.15 K, x2 = 0.5) was 0.586 and the “solubility (g/100 g solution)” value (308.15 K, x2 = 0.6) was 0.824. The “solubility (g/100 g solution)” value (308.15 K, x2 = 0.7) was 1.04, the “solubility (g/100 g solution)” value (308.15 K, x2 = 0.8) was 1.21 and the “solubility (g/100 g solution)” value (308.15 K, x2 = 0.9) was 1.23. For the same molecule, the “solubility (g/100 g solution)” value (313.15 K, x2 = 0.2) was 0.0375, the “solubility (g/100 g solution)” value (313.15 K, x2 = 0.3) was 0.185 and the “solubility (g/100 g solution)” value (313.15 K, x2 = 0.4) was 0.421. For the same molecule, the “solubility (g/100 g solution)” value (313.15 K, x2 = 0.5) was 0.726, the “solubility (g/100 g solution)” value (313.15 K, x2 = 0.6) was 0.996 and the “solubility (g/100 g solution)” value (313.15 K, x2 = 0.7) was 1.3. For the same molecule, the “solubility (g/100 g solution)” value (313.15 K, x2 = 0.8) was 1.47, the “solubility (g/100 g solution)” value (313.15 K, x2 = 0.9) was 1.5 and the “solubility (g/100 g solution)” value (318.15 K, x2 = 0.2) was 0.0513. For the same molecule, the “solubility (g/100 g solution)” value (318.15 K, x2 = 0.3) was 0.238, the “solubility (g/100 g solution)” value (318.15 K, x2 = 0.4) was 0.524 and the “solubility (g/100 g solution)” value (318.15 K, x2 = 0.5) was 0.921. For the same molecule, the “solubility (g/100 g solution)” value (318.15 K, x2 = 0.6) was 1.25, the “solubility (g/100 g solution)” value (318.15 K, x2 = 0.7) was 1.61 and the “solubility (g/100 g solution)” value (318.15 K, x2 = 0.8) was 1.87. The “solubility (g/100 g solution)” value (318.15 K, x2 = 0.9) was 1.94, the “solubility (g/100 g solution)” value (323.15 K, x2 = 0.2) was 0.0683 and the “solubility (g/100 g solution)” value (323.15 K, x2 = 0.3) was 0.304. The “solubility (g/100 g solution)” value (323.15 K, x2 = 0.4) was 0.668, the “solubility (g/100 g solution)” value (323.15 K, x2 = 0.5) was 1.12 and the “solubility (g/100 g solution)” value (323.15 K, x2 = 0.6) was 1.54. For the same molecule, the “solubility (g/100 g solution)” value (323.15 K, x2 = 0.7) was 1.97, the “solubility (g/100 g solution)” value (323.15 K, x2 = 0.8) was 2.26 and the “solubility (g/100 g solution)” value (323.15 K, x2 = 0.9) was 2.39.

For `Clc1ncnc2[nH]ccc12` + C1CCOC1 + CC#N, the “solubility (g/100 g solution)” value (278.15 K, x2 = 0.1144) was 1.32, the “solubility (g/100 g solution)” value (278.15 K, x2 = 0.2441) was 2.03 and the “solubility (g/100 g solution)” value (278.15 K, x2 = 0.3923) was 3.17. The “solubility (g/100 g solution)” value (278.15 K, x2 = 0.4748) was 3.9, the “solubility (g/100 g solution)” value (278.15 K, x2 = 0.5636) was 5.02 and the “solubility (g/100 g solution)” value (278.15 K, x2 = 0.7635) was 7.14. The “solubility (g/100 g solution)” value (283.15 K, x2 = 0.1144) was 1.6, the “solubility (g/100 g solution)” value (283.15 K, x2 = 0.2441) was 2.39 and the “solubility (g/100 g solution)” value (283.15 K, x2 = 0.3923) was 3.65. For the same molecule, the “solubility (g/100 g solution)” value (283.15 K, x2 = 0.4748) was 4.49, the “solubility (g/100 g solution)” value (283.15 K, x2 = 0.5636) was 5.61 and the “solubility (g/100 g solution)” value (283.15 K, x2 = 0.7635) was 8. The “solubility (g/100 g solution)” value (288.15 K, x2 = 0.1144) was 1.93, the “solubility (g/100 g solution)” value (288.15 K, x2 = 0.2441) was 2.84 and the “solubility (g/100 g solution)” value (288.15 K, x2 = 0.3923) was 4.24. For the same molecule, the “solubility (g/100 g solution)” value (288.15 K, x2 = 0.4748) was 5.13, the “solubility (g/100 g solution)” value (288.15 K, x2 = 0.5636) was 6.32 and the “solubility (g/100 g solution)” value (288.15 K, x2 = 0.7635) was 8.83. For the same molecule, the “solubility (g/100 g solution)” value (293.15 K, x2 = 0.1144) was 2.31, the “solubility (g/100 g solution)” value (293.15 K, x2 = 0.2441) was 3.33 and the “solubility (g/100 g solution)” value (293.15 K, x2 = 0.3923) was 4.84. The “solubility (g/100 g solution)” value (293.15 K, x2 = 0.4748) was 5.83, the “solubility (g/100 g solution)” value (293.15 K, x2 = 0.5636) was 7.09 and the “solubility (g/100 g solution)” value (293.15 K, x2 = 0.7635) was 9.79. For the same molecule, the “solubility (g/100 g solution)” value (298.15 K, x2 = 0.1144) was 2.76, the “solubility (g/100 g solution)” value (298.15 K, x2 = 0.2441) was 3.92 and the “solubility (g/100 g solution)” value (298.15 K, x2 = 0.3923) was 5.58. The “solubility (g/100 g solution)” value (298.15 K, x2 = 0.4748) was 6.63, the “solubility (g/100 g solution)” value (298.15 K, x2 = 0.5636) was 8 and the “solubility (g/100 g solution)” value (298.15 K, x2 = 0.7635) was 10.7. The “solubility (g/100 g solution)” value (303.15 K, x2 = 0.1144) was 3.28, the “solubility (g/100 g solution)” value (303.15 K, x2 = 0.2441) was 4.49 and the “solubility (g/100 g solution)” value (303.15 K, x2 = 0.3923) was 6.34. For the same molecule, the “solubility (g/100 g solution)” value (303.15 K, x2 = 0.4748) was 7.45, the “solubility (g/100 g solution)” value (303.15 K, x2 = 0.5636) was 8.89 and the “solubility (g/100 g solution)” value (303.15 K, x2 = 0.7635) was 11.8. The “solubility (g/100 g solution)” value (308.15 K, x2 = 0.1144) was 3.83, the “solubility (g/100 g solution)” value (308.15 K, x2 = 0.2441) was 5.24 and the “solubility (g/100 g solution)” value (308.15 K, x2 = 0.3923) was 7.13. For the same molecule, the “solubility (g/100 g solution)” value (308.15 K, x2 = 0.4748) was 8.34, the “solubility (g/100 g solution)” value (308.15 K, x2 = 0.5636) was 9.89 and the “solubility (g/100 g solution)” value (308.15 K, x2 = 0.7635) was 12.8. For the same molecule, the “solubility (g/100 g solution)” value (313.15 K, x2 = 0.1144) was 4.5, the “solubility (g/100 g solution)” value (313.15 K, x2 = 0.2441) was 5.97 and the “solubility (g/100 g solution)” value (313.15 K, x2 = 0.3923) was 8.04. The “solubility (g/100 g solution)” value (313.15 K, x2 = 0.4748) was 9.34, the “solubility (g/100 g solution)” value (313.15 K, x2 = 0.5636) was 10.9 and the “solubility (g/100 g solution)” value (313.15 K, x2 = 0.7635) was 14. The “solubility (g/100 g solution)” value (318.15 K, x2 = 0.1144) was 5.24, the “solubility (g/100 g solution)” value (318.15 K, x2 = 0.2441) was 6.81 and the “solubility (g/100 g solution)” value (318.15 K, x2 = 0.3923) was 9.06. For the same molecule, the “solubility (g/100 g solution)” value (318.15 K, x2 = 0.4748) was 10.4, the “solubility (g/100 g solution)” value (318.15 K, x2 = 0.5636) was 12 and the “solubility (g/100 g solution)” value (318.15 K, x2 = 0.7635) was 15.2. The “solubility (g/100 g solution)” value (323.15 K, x2 = 0.1144) was 6.02, the “solubility (g/100 g solution)” value (323.15 K, x2 = 0.2441) was 7.73 and the “solubility (g/100 g solution)” value (323.15 K, x2 = 0.3923) was 10.1. For the same molecule, the “solubility (g/100 g solution)” value (323.15 K, x2 = 0.4748) was 11.5, the “solubility (g/100 g solution)” value (323.15 K, x2 = 0.5636) was 13.2 and the “solubility (g/100 g solution)” value (323.15 K, x2 = 0.7635) was 16.4.

Source: the CheMixHub drug solubility set
